Experiments:
Type in all cases: cell-based
[1] = test system: Listeria monocytogenes OSY-328; experiment: Pressure inactivation in phosphate buffer, plate count; conditions: TBHQ about 100 ppm
Protocol: (§1) Three strains of Listeria monocytogenes identified in Example 1 were grown in tryptose broth for 18 hours at 37° C. Cultures were centrifuged at 10,000 rpm for 15 minutes at 4° C. Cell pellets were resuspended in phosphate buffer (pH 7.0) and the cell population of each strain was adjusted to 10^9 CFU/ml. Tert-butylhydroquinone was added at about 100 ppm (10% vol/vol TBHQ/culture). Preparation of sample bags and the high pressure treatment procedures were same as indicated in Example 1. Pressures tested were 300, 500, and 700 MPa. Control and high pressure-treated treated samples were serially diluted in 0.1% peptone water and spread-plated on tryptose agar. The plates were incubated at 37° C. for 48-72 hours and the colonies were counted.
(§2) The detection level for enumeration was 10 CFU/ml. The initial population of OSY-328 averaged about 8.9 logs; therefore, more than 7.9 log reduction indicates below the detection level.

[2] = test system: Listeria monocytogenes OSY-8578; experiment: as above; conditions: TBHQ about 100 ppm
Protocol: as §1, §2

[3] = test system: Listeria monocytogenes Scott A; experiment: as above; conditions: TBHQ about 100 ppm
Protocol: as §1, §2

[4] = test system: Listeria monocytogenes strains; experiment: Tailing behaviour during pressure treatment in phosphate buffer; conditions: combination of high pressure (300, 500, 700 MPa) and TBHQ about 100 ppm
Protocol: as §1, §2

[5] = test system: Listeria monocytogenes Scott A; experiment: Inoculated bagged Vienna sausage challenge, warm enrichment/plating for survivors; conditions: nisin 0 IU/g, about 5 min; for Percentage of Bags Testing Positive For Listeria in Batch of 5 (±S.D.): TBHQ 100 ppm, sausage about 10^6 CFU/g; for Percentage of Bags Testing Positive For Listeria in Batch of 3 (±S.D.): TBHQ 300 ppm, sausage about 10^6 per g
Protocol: In another embodiment, a food substrate processed according to methods of this invention has nondetectable levels of Listeria (even if contamination has occurred). […] The mixture is incubated at 37° C. for 48 hours, followed by the enrichment (mixture) being streaked on Oxford agar or […] agar, and observing the streaked plate for the presence/absence of Listeria. […] Tailing effects also may be reduced or eliminated by methods of the present invention. The presence or absence of other microorganisms may be detected using similar techniques modified for the specific microorganism under consideration. The edible hydroquinone was tert-butylhydroquinone (TBHQ) at a level of either 0 or 100 ppm. The tert-butylhydroquinone was a food grade material obtained from Sigma Chemical Co. (St. Louis, Mo.). The lantibiotic was nisin at a level of either 0 or 100 IU/g. The nisin used was either pure nisin or a commercial nisin ([…]®), both from Aplin & Barrett, Ltd. (Trowbridge, England). […] Nisin samples were prepared by dissolving nisin powder in distilled water, adjusting the pH to 2 with HCl, and sterilizing at 121° C. for 10 minutes. Samples were prepared and used on the same day for each experiment. Three strains of Listeria monocytogenes were used in these challenge studies. Listeria monocytogenes Scott A, OSY-8578, and OSY-328, were obtained from the Food Safety Laboratory of the Department of Food Science and Technology at The Ohio State University (Columbus, Ohio). All experiments were carried out with cultures in stationary phase (grown in tryptose broth (TB; Difco Laboratories, Detroit, Mich.) for 18 hours at 37° C.). […] The hydrostatic pressure used was 600 MPa. For comparison purposes, samples were also treated with no hydrostatic pressure (i.e., under atmospheric pressure). A hydrostatic food processor (Quintus QFP-6, ABB Autoclave Systems, Inc., Columbus, Ohio) was used with a pressure transmitting fluid containing a water/propylene glycol (1:1 vol/vol; Houghto-Safe 620-TY, Houghton International, Inc., Valley Forge, Pa.). Samples were held in a refrigerator before processing and placed on ice following treatment. The temperature during each run was monitored using a thermocouple and a datalogger (Campbell Scientific, Inc., Logan, Utah). […] Canned Vienna sausage (Armour®, The Dial Corporation, Scottsdale, Ariz.) was purchased from local grocery stores. […] One milliliter of each additive, alone or in combinations, was added, and the bags were sealed using vacuum […], Kansas City, Mo.). […] Non-pressurized samples were treated in a similar manner except that no pressure was applied. After high pressure processing, bags were opened aseptically. […] The presence or absence of L. monocytogenes survivors in the samples was determined by streaking the incubated mixture onto Oxford agar and/or […] agar. Each test run consisted of 5 tested bags at a given set of variables; the experiment was repeated 4 times. Treatment conditions required for essentially total elimination of L. monocytogenes were determined using essentially the same materials and procedures as used in Example 1 except that the nisin level was 0, 100, or 200 IU/g; the hydroquinone level was 0, 100, 200, or 300 ppm; and each experiment was repeated 3 times.

[6] = 300 MPa, 0 min (come-up, immediate depressurization)
[7] = 500 MPa, 0 min (come-up, immediate depressurization)
[8] = 700 MPa, 0 min (come-up, immediate depressurization)

CC(C)(C)c1cc(O)ccc1O [TBHQ, tert-butylhydroquinone]
Average Log Reduction [1, 6]: 0 log
Average Log Reduction ([1]; 300 MPa, 1 min): 0 log
Average Log Reduction ([1]; 300 MPa, 5 min): 0 log
Average Log Reduction ([1]; 300 MPa, 10 min): 0.2 log
Average Log Reduction ([1]; 300 MPa, 20 min): 1.0 log
Average Log Reduction ([1]; 300 MPa, 30 min): 1.6 log
Average Log Reduction ([1]; 300 MPa, 40 min): 2.3 log
Average Log Reduction ([1]; 300 MPa, 50 min): 2.4 log
Average Log Reduction ([1]; 300 MPa, 60 min): 3.1 log
Average Log Reduction [1, 7]: 0.2 log
Average Log Reduction ([1]; 500 MPa, 5 min): 7.6 log
Average Log Reduction ([1]; 500 MPa, 10 min): 7.8 log
Average Log Reduction ([1]; 500 MPa, 20 min): ≧7.9 log
Average Log Reduction ([1]; 500 MPa, 30 min): 7.8 log
Average Log Reduction ([1]; 500 MPa, 40 min): ≧7.9 log
Average Log Reduction ([1]; 500 MPa, 50 min): ≧7.9 log
Average Log Reduction [1, 8]: 5.3 log
Average Log Reduction ([1]; 700 MPa, 1 min): ≧8.0 log
Average Log Reduction ([1]; 700 MPa, 5 min): ≧8.0 log
Average Log Reduction ([1]; 700 MPa, 10 min): ≧7.9 log
Average Log Reduction ([1]; 700 MPa, 15 min): ≧7.9 log
Average Log Reduction ([1]; 700 MPa, 20 min): 7.8 log
Average Log Reduction ([1]; 700 MPa, 30 min): ≧8.0 log
Average Log Reduction [2, 6]: 0 log
Average Log Reduction ([2]; 300 MPa, 1 min): 0.2 log
Average Log Reduction ([2]; 300 MPa, 5 min): 0.2 log
Average Log Reduction ([2]; 300 MPa, 10 min): 0.8 log
Average Log Reduction ([2]; 300 MPa, 20 min): 3.8 log
Average Log Reduction ([2]; 300 MPa, 30 min): 5.0 log
Average Log Reduction ([2]; 300 MPa, 40 min): 5.7 log
Average Log Reduction ([2]; 300 MPa, 50 min): 7.2 log
Average Log Reduction [2, 7]: 0.2 log
Average Log Reduction ([2]; 500 MPa, 1 min): 7.2 log
Average Log Reduction ([2]; 500 MPa, 5 min): 7.6 log
Average Log Reduction ([2]; 500 MPa, 10 min): ≧8.0 log
Average Log Reduction ([2]; 500 MPa, 20 min): 7.9 log
Average Log Reduction ([2]; 500 MPa, 30 min): 7.8 log
Average Log Reduction ([2]; 500 MPa, 40 min): ≧8.0 log
Average Log Reduction [2, 8]: 7.6 log
Average Log Reduction ([2]; 700 MPa, 0.5 min): 7.7 log
Average Log Reduction ([2]; 700 MPa, 1 min): 7.8 log
Average Log Reduction ([2]; 700 MPa, 5 min): ≧8.0 log
Average Log Reduction ([2]; 700 MPa, 10 min): ≧8.0 log
Average Log Reduction ([2]; 700 MPa, 15 min): ≧8.0 log
Average Log Reduction ([2]; 700 MPa, 20 min): ≧8.0 log
Average Log Reduction [3, 6]: 0 log
Average Log Reduction ([3]; 300 MPa, 1 min): 0 log
Average Log Reduction ([3]; 300 MPa, 5 min): 2.2 log
Average Log Reduction ([3]; 300 MPa, 10 min): 6.5 log
Average Log Reduction ([3]; 300 MPa, 20 min): 7.3 log
Average Log Reduction ([3]; 300 MPa, 30 min): 7.3 log
Average Log Reduction ([3]; 300 MPa, 40 min): ≧8.0 log
Average Log Reduction [3, 7]: 3.8 log
Average Log Reduction ([3]; 500 MPa, 1 min): 7.9 log
Average Log Reduction ([3]; 500 MPa, 5 min): 8.0 log
Average Log Reduction ([3]; 500 MPa, 10 min): ≧8.0 log
Average Log Reduction ([3]; 500 MPa, 15 min): ≧8.0 log
Average Log Reduction ([3]; 500 MPa, 20 min): ≧8.0 log
Average Log Reduction ([3]; 500 MPa, 30 min): ≧8.0 log
Average Log Reduction [3, 8]: 7.7 log
Average Log Reduction ([3]; 700 MPa, 0.5 min): 7.5 log
Average Log Reduction ([3]; 700 MPa, 1 min): ≧8.0 log
Average Log Reduction ([3]; 700 MPa, 2 min): ≧8.0 log
Average Log Reduction ([3]; 700 MPa, 5 min): ≧8.0 log
Average Log Reduction ([3]; 700 MPa, 10 min): ≧8.0 log
Average Log Reduction ([3]; 700 MPa, 15 min): ≧8.0 log
tailing phenomenon [4]: eliminated the tailing phenomenon
Percentage of Bags Testing Positive For Listeria in Batch of 5 (±S.D.) ([5]; Run 3: 0 MPa): 100%
Percentage of Bags Testing Positive For Listeria in Batch of 5 (±S.D.) ([5]; Run 7: 600 MPa): 15 (±30) %
Percentage of Bags Testing Positive For Listeria in Batch of 3 (±S.D.) ([5]; Run 10: 0 MPa): 100%
Percentage of Bags Testing Positive For Listeria in Batch of 3 (±S.D.) ([5]; Run 15: 600 MPa): 0%
